In patent US9440957B2, “Compounds and compositions for modulating EGFR Activity” (Novartis AG, priority 2012, dated 2016):
pIC50: −log10 of the molar value. Like-named read-outs stand apart in the source and are kept apart here.

Tests used:
EGFR(L858R/T790M) = biological target: T1, EGFR(L858R/T790M) (Homo sapiens, UniProt P00533, L858R/T790M); test: EGFR biochemical assay (HTRF), IC50 determinations
T1 construct: purchased from Carna (GST-a.a. 669-1210)
In short: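 HTRF kinase reaction with biotin-TK peptide at room temperature, quenched with EDTA at 60 min and detected with PT66K/SAXL after 1 h. Without preincubation, enzyme starts the reaction with compound, ATP and peptide present. With preincubation, compound, enzyme and peptide sit at room temperature for a set time before ATP is added.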

[1] = biological target: human EGFR L858R/T790M (NIH/3T3 cells) (Homo sapiens, UniProt P00533, L858R/T790M); test: EGFR target modulation in engineered NIH/3T3 cell lines (phospho-EGFR Y1068 AlphaLISA), EGFR L858R/T790M; type: cell-based; settings: engineered NIH/3T3 cells, read-out: NIH3T3 IC50 (μM) EGFR (L858R/T790M)
In short: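 Engineered NIH/3T3 cells expressing EGFR variants treated 3 h at 37 °C with 12-point 1:3 compound series (top stock 10 μM); only WT cells stimulated with 50 ng/ml EGF for 5 min before lysis. Phospho-Y1068 measured by AlphaLISA with total-EGFR antibody; IC50 from non-linear fitting.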

HCC827 (Del E746-A750) = HCC827 (Del E746-A750) (Homo sapiens, UniProt P00533, DEL746-750); test: EGFR target modulation in HCC827 cell line (phospho-EGFR Y1173 ELISA); type: cell-based
In short: (§1)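 pY1173 was measured by sandwich ELISA with anti-EGFR capture and chemiluminescent read-out. Before lysis, each cell line (HCC827, H1975, H3255) was treated with compound for 3 hours. IC50 derived by non-linear fit, normalised to EGF-stimulated controls as maximum.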

H3255 (EGFR L858R) = H3255 (EGFR L858R) (Homo sapiens, UniProt P00533, L858R); test: EGFR target modulation in H3255 cell line (phospho-EGFR Y1173 ELISA); type: cell-based
In short: as §1

HaCaT (EGFR WT) = HaCaT (EGFR WT) (Homo sapiens, UniProt P00533); test: EGFR target modulation in HaCaT (EGFR-WT) cell line (phospho-EGFR Y1173 ELISA); type: cell-based; settings: value in parentheses
In short: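 HaCaT cells were treated with compound for 3 h and stimulated with EGF. Lysates (20 min on ice) were captured overnight at 4 °C on anti-EGFR-coated plates, and phospho-EGFR was detected by HRP chemiluminescence.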

[2] = EGFR (L858R/T790M) with 90 min pre-incubation, read-out: IC50 (μM) Column B
[3] = EGFR (L858R/T790M) with no pre-incubation, read-out: IC50 (μM) Column A

Chain of HaCaT (EGFR WT) (P00533 25-1210): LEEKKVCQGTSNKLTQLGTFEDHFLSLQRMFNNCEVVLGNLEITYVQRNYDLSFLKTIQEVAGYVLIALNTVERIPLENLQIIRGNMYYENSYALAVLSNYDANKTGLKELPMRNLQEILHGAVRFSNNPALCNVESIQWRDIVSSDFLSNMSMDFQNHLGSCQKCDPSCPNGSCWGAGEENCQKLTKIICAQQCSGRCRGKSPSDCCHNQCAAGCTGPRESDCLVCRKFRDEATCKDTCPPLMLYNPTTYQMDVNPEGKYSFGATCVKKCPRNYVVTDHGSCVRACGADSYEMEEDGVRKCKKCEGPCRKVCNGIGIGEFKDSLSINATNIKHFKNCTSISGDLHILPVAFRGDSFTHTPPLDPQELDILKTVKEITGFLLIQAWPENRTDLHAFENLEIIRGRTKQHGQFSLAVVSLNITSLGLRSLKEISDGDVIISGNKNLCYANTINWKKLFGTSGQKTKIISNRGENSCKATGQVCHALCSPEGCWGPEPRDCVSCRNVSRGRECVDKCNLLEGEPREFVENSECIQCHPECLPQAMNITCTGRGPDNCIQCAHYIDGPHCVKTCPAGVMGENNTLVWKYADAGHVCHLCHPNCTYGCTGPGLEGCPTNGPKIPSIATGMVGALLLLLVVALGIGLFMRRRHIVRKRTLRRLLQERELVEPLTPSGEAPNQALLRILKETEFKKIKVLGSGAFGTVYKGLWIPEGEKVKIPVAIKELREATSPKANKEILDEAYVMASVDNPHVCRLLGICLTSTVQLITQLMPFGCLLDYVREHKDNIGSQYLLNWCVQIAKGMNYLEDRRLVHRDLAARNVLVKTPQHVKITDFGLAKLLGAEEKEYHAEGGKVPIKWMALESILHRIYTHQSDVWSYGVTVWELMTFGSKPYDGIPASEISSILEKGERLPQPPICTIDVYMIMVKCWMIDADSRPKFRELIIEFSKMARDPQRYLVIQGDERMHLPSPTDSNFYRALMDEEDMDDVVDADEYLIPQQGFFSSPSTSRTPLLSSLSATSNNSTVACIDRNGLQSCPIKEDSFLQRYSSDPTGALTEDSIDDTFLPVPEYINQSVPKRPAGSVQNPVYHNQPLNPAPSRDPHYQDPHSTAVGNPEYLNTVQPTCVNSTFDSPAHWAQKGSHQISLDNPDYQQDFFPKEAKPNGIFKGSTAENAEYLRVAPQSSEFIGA
T1 sequence (P00533 669-1210 T790M/L858R): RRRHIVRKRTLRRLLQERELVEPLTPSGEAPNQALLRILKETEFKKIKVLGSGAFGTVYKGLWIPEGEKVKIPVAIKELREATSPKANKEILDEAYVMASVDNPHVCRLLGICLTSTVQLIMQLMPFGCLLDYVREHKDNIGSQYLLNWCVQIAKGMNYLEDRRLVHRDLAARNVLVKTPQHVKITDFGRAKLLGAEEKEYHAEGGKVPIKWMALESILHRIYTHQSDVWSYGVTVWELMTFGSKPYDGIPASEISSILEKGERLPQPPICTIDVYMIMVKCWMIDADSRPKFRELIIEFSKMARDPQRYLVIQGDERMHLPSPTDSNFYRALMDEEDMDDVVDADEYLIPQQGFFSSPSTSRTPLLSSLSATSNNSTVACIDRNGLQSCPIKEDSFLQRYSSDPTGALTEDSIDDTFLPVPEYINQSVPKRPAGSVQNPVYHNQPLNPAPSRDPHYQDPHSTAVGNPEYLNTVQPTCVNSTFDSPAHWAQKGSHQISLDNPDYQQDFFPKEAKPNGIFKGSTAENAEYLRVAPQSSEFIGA
Chain of HCC827 (Del E746-A750) (P00533 with tags, fused parts or gaps DEL746-750): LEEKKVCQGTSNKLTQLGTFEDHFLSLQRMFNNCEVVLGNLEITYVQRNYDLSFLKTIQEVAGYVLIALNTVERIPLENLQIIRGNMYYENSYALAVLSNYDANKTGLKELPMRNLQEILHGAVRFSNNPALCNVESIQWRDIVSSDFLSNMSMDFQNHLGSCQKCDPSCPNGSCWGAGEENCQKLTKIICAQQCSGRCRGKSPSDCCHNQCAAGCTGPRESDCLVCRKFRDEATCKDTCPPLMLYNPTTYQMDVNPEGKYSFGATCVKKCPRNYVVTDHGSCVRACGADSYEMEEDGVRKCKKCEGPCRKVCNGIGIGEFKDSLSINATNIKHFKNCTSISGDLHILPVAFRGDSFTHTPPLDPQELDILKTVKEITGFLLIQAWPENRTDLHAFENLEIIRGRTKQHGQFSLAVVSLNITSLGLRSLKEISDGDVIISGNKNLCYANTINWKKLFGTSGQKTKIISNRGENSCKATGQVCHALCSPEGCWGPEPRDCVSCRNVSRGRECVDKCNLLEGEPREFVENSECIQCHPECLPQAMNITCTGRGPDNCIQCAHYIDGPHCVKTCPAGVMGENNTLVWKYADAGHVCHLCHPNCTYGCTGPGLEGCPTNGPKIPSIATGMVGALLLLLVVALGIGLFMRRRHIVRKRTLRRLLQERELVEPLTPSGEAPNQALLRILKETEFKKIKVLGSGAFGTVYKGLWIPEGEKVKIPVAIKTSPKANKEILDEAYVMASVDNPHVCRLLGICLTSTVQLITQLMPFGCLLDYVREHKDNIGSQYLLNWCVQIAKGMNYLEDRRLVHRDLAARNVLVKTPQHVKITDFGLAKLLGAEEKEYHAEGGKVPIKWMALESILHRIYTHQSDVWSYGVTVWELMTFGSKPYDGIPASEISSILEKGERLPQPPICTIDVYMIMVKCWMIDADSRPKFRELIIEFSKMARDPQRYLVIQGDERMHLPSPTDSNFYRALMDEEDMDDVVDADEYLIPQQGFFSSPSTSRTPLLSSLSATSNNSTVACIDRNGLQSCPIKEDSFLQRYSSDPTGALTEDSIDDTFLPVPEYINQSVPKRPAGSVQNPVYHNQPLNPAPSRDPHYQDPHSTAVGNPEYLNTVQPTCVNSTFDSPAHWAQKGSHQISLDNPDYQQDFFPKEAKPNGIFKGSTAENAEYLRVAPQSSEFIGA
Chain of human EGFR L858R/T790M (NIH/3T3 cells) (P00533 25-1210 T790M/L858R): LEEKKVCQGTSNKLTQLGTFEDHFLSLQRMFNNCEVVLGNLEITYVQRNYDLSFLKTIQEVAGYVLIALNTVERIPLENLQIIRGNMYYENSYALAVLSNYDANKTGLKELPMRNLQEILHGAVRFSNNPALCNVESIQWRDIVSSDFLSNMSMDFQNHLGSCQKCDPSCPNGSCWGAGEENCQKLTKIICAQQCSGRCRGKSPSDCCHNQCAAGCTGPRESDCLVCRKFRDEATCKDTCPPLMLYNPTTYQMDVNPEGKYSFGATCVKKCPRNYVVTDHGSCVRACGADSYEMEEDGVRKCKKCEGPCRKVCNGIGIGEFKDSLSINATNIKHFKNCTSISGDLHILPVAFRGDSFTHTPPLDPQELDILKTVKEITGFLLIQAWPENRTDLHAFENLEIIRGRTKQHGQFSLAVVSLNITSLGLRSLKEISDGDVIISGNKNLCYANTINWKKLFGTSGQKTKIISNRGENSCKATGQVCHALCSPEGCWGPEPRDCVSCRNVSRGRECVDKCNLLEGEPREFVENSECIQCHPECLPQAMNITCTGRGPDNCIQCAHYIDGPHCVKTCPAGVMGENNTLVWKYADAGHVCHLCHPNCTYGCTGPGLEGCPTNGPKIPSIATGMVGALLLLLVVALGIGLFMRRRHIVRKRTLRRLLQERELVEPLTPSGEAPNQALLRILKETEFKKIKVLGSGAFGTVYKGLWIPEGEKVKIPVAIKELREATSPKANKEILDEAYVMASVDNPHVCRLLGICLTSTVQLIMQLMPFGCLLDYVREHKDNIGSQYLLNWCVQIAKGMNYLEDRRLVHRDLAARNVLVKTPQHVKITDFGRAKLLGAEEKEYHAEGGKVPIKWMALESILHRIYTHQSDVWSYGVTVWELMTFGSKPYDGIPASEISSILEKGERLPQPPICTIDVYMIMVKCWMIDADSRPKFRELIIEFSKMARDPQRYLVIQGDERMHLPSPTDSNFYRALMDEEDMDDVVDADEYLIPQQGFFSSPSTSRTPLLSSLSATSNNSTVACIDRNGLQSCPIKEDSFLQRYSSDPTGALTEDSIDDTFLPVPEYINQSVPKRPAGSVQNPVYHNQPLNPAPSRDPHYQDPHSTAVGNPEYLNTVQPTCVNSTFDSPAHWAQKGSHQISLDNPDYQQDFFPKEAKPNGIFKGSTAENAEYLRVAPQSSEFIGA

SMILES	IC50 (EGFR(L858R/T790M); [2]) [µM]	IC50 (EGFR(L858R/T790M); [3]) [µM]	IC50 [1] [µM]	pIC50 (HCC827 (Del E746-A750))	pIC50 (H3255 (EGFR L858R))	pIC50 (HaCaT (EGFR WT))
C=CC(=O)N1CCCC[C@@H](n2c(NC(=O)c3ccnc(C)c3)nc3cc(CN4CC[C@H](F)C4)cc(C)c32)C1 [Example 17-147]	< 0.001	0.002	< 0.001	> 9.00	8.70	7.36
C=CC(=O)N1CCCC[C@@H](n2c(NC(=O)c3ccnc(C)c3)nc3cc(CN4CC[C@@H](F)C4)cc(C)c32)C1 [Example 17-148]	< 0.001	0.002	0.002	> 9.00	8.70	7.28
C=CC(=O)N1CCCC[C@@H](n2c(NC(=O)c3ccnc(C)c3)nc3cc(CN4CC[C@H](OC)C4)cc(C)c32)C1 [Example 17-149]	< 0.001	0.002	< 0.001	> 9.00	8.70	7.32
C=CC(=O)N1CCCC[C@@H](n2c(NC(=O)c3ccnc(C)c3)nc3cc(CN4CC[C@@H](OC)C4)cc(C)c32)C1 [Example 17-150]	< 0.001	0.003	0.001	> 9.00	8.52	7.23
C=CC(=O)N1CCCC[C@@H](n2c(NC(=O)c3ccnc(C)c3)nc3cc(CN4CC(F)C4)cc(C)c32)C1 [Example 17-152]	< 0.001	0.002	0.001	> 9.00	8.70	7.34
C=CC(=O)N1CCCC[C@@H](n2c(NC(=O)c3ccnc(C)c3)nc3cc(CN4CC(OC)C4)cc(C)c32)C1 [Example 17-154]	< 0.001	0.002	0.001	> 9.00	8.70	7.42
